Measured values as given in patent US20200297760A1, “COMPOSITIONS AND METHODS FOR REDUCING IMMUNE RESPONSES AGAINST CHIMERIC ANTIGEN RECEPTORS” (Juno Therapeutics, Inc., priority 2015, published 2020).
No end group written: not given here.

What was measured:
[1] = system: PBMCs of subjects treated with CD19-specific CAR T cells; experiment: ELISpot assay for specific immune response to individual CAR peptides; assay type: cell-based, human; details: PBMCs of patients with detected CAR-specific immune response after CD19 CAR T cell infusion
Description: Individual ELISpot assays were performed using an anti-cytokine capture antibody to assess the presence or absence of a specific immune response for each of these individual hits (see Berger et al. (2006); Berger et al. (2001); Riddell et al. (1996); and Berger et al. (2005), supra). Specific immune responses against peptides with sequences within the VH portion of the scFv of the CAR were detected in both patients assessed (including regions within the FR1, CDR1, and FR2 regions for one patient and within the FR3 for the other). […] These two overlapping 15-mer peptides had the amino acid sequences […] (SEQ ID NO: 8) and […] (SEQ ID NO: 9, also set forth in SEQ ID NO:165), respectively. In another study following administration with a different CAR having a murine scFv, CD28 transmembrane and costimulatory domains and a CD3 zeta domain, using similar methods, an immune response also was detected for one subject against a pool containing VH portions of an anti-CD19 scFv and for another subject in a pool containing junction portions.

HLA-A*11:01 = HLA-A*11:01 (Homo sapiens, UniProt P04439, A114D/D185E/E176A/F33Y/L180Q/S129P/T187R); experiment: REVEAL Epitope Discovery System in vitro MHC-peptide binding assay; details: binding normalized to positive control peptide set at 100%, >50 considered good or high affinity binding
Description: (§1) Actual binding affinities for certain HLA class I alleles (A*02:01, A*03:01, A*11:01, and B*08:01) were assessed in vitro for exemplary overlapping 9 amino acid peptide sequences within a portion of the 26 amino acid junction region spanning the CD28 and 4-1BB junction. Specifically, assessment was of a series of overlapping 9-mer peptides derived from the sequence […] (set forth in SEQ ID NO: 7), which contains a portion of the CD28 transmembrane domain and 4-1BB costimulatory domain spanning the junction between the domains (bond joining the two amino acids noted in underline). In addition, a series of overlapping 9-mer peptides of each of a number of different variants of this portion also were assessed, each variant containing a mutation or mutations in this region as described in Example 2.
(§2) The various 9-mer overlapping peptides were synthesized and their purity tested by MALDI-TOF Mass Spectrometry. The synthetic peptides were then incubated with recombinant MHC molecules to assess binding properties using the REVEAL Epitope Discovery System, which is a high-throughput binding assay that measures the degree to which each peptide is able to stabilize a ternary MHC-peptide complex (Prolmmune, Oxford, United Kingdom). Each peptide was separately tested for this ability with respect to each of the HLA class I alleles, normalized to the degree observed for a positive control (known T cell epitope for the relevant allele). The results are reported as a score, in which the binding was normalized to the positive control peptide set at 100%. In this analysis, a score of greater than 50 generally was considered to represent good or high affinity binding.

HLA-B*08:01 = HLA-B*08:01 (Homo sapiens, UniProt P01889, A93T/A95T/D138N/E176V/E187T/K202T/Q94N/R180D/S35A/V36M/Y33D/Y91F); experiment: as above; details: binding normalized to positive control peptide set at 100%, >50 considered good or high affinity binding
Description: as §1, §2

HLA-A*03:01 = HLA-A*03:01 (Homo sapiens, UniProt P04439); experiment: as above; details: REVEAL score, binding normalized to positive control peptide set at 100%; greater than 50 considered good or high affinity binding
Description: as §1, §2

HLA-A*02:01 = HLA-A*02:01 (Homo sapiens, UniProt P04439, D140Y/D185E/D98H/E176V/E277Q/G131W/G231S/I119V/I121R/I166T/I218V/L300P/L318F/N151K/N90K/P208A/P217A/Q86G/Q94H/R138H/R169H/T345S); experiment: as above; details: binding normalized to positive control peptide set at 100%, greater than 50 considered good or high affinity binding
Description: as §1, §2

Compound | specific immune response against peptide (ELISpot) [1] | A*11:01 In Vitro Score (HLA-A*11:01) | B*08:01 In Vitro Score (HLA-B*08:01) | A*03:01 In Vitro (HLA-A*03:01) | A*02:01 In Vitro Score (HLA-A*02:01)
FWVKRGRKKLLYIFK | specific immune responses also were detected | – | – | – | –
CC[C@H](C)[C@H](N)C(=O)N[C@H](C(=O)N[C@@H](Cc1ccccc1)C(=O)N[C@@H](Cc1c[nH]c2ccccc12)C(=O)N[C@H](C(=O)N[C@@H](CCCCN)C(=O)N[C@@H](CCCNC(=N)N)C(=O)NCC(=O)N[C@@H](CC(N)=O)C(=O)O)C(C)C)[C@@H](C)CC | – | 42.10 | 0.90 | 4.30 | 9.30
AFIIFWVLR | – | 17.20 | 0.20 | 0.30 | 5.70
IFWVKRGSK | – | 47.90 | 1.20 | 10.40 | 2.40
AFIIFWVKR | – | 25.90 | 1.90 | 5.70 | 0.50
VAFIIFWVR | – | 34.60 | 0.10 | 0.70 | 1.20
IIFWVKRGR | – | 54.50 | 0.00 | 24.30 | 1.70
AFIIFWVKRGRKKLL | specific immune responses also were detected | – | – | – | –
WVKRGRKKL | – | 4.80 | 28.50 | 13.10 | 1.40
CC[C@H](C)[C@H](N)C(=O)N[C@@H](Cc1ccccc1)C(=O)N[C@@H](Cc1c[nH]c2ccccc12)C(=O)N[C@H](C(=O)N[C@@H](CCCCN)C(=O)N[C@@H](CCCNC(=N)N)C(=O)NCC(=O)N[C@@H](Cc1c[nH]cn1)C(=O)N[C@@H](CCCCN)C(=O)O)C(C)C | – | 30.90 | 3.20 | 9.00 | 2.20
IIFWVHRGR | – | 77.50 | 0.20 | 30.10 | 4.70
CC(C)C[C@H](NC(=O)CNC(=O)[C@H](CCCNC(=N)N)NC(=O)[C@H](CCCCN)NC(=O)[C@@H](NC(=O)[C@H](Cc1c[nH]c2ccccc12)NC(=O)[C@@H](N)Cc1ccccc1)C(C)C)C(=O)N[C@@H](CCCCN)C(=O)N[C@@H](CCCCN)C(=O)O | – | 25.30 | 6.30 | 2.70 | 9.40
IIFWVKRGA | – | 22.60 | 0.90 | 42.90 | 85.90
WVQRGAKKL | – | 3.80 | 11.40 | 2.00 | 3.00
FWVKRGSKK | – | 5.60 | 0.10 | 5.90 | 1.90
IFWVQRGNK | – | 67.50 | 0.10 | 23.20 | 16.10
IIFWVKRGL | – | 32.40 | 1.70 | 15.90 | 82.20
FWVQRGSKK | – | 6.80 | 0.00 | 1.90 | 0.80
IFWVKRGAK | – | 69.70 | 2.20 | 22.00 | 13.80
IIFWVQRGR | – | 72.80 | 0.10 | 18.00 | 5.80
WVKRGLKKL | – | 22.10 | 65.70 | 10.00 | 24.50
AFIIFWVAR | – | 51.80 | 0.20 | 0.50 | 2.20

Compound | specific immune response against peptide (ELISpot) [1] | A*11:01 In Vitro Score (HLA-A*11:01) | B*08:01 In Vitro Score (HLA-B*08:01) | A*03:01 In Vitro (HLA-A*03:01) | A*02:01 In Vitro Score (HLA-A*02:01)
FWVLRGRKK | – | 5.00 | 0.00 | 0.40 | 3.30
WVKRGHKKL | – | 2.80 | 47.60 | 1.40 | 3.90
VAFIIFWVQ | – | 3.90 | 0.20 | 0.20 | 5.30
IFWVHRGRK | – | 36.60 | 0.10 | 37.80 | 7.10
FWVQRGNKK | – | 5.90 | 0.00 | 1.30 | 3.10
FIIFWVKRG | – | 0.40 | 0.10 | 1.40 | 10.10
AFIIFWVHR | – | 34.90 | 0.30 | 0.30 | 0.30
FIIFWVHRG | – | 0.90 | 0.20 | 0.00 | 37.30
IIFWVQRGN | – | 29.00 | 0.00 | 3.60 | 13.00
FWVQRGRKK | – | 5.70 | 1.90 | 6.40 | 5.20
VAFIIFWVS | – | 25.10 | 0.10 | 0.70 | 70.60
IFWVQRGRK | – | 128.50 | 0.00 | 36.70 | 6.10
CC(C)C[C@H](NC(=O)[C@H](CCCCN)NC(=O)[C@H](CCCCN)NC(=O)[C@H](CCCNC(=N)N)NC(=O)CNC(=O)[C@H](CCCNC(=N)N)NC(=O)[C@H](CCC(N)=O)NC(=O)[C@@H](NC(=O)[C@@H](N)Cc1c[nH]c2ccccc12)C(C)C)C(=O)O | – | 12.80 | 45.10 | 4.90 | 8.10
FWVSRGRKK | – | 6.30 | 0.00 | 2.90 | 1.50
WVLRGRKKL | – | 3.20 | 4.00 | 0.70 | 2.40
IIFWVKRGH | – | 19.50 | 0.10 | 26.60 | 5.30
WVKRGAKKL | – | 4.60 | 34.10 | 4.10 | 4.70
FIIFWVSRG | – | 5.10 | 0.40 | 0.10 | 0.20
IIFWVSRGR | – | 68.90 | 0.00 | 25.30 | 2.60
IFWVSRGRK | – | 39.20 | 0.00 | 39.20 | 1.30
WVKRGSKKL | – | 11.80 | 56.10 | 1.90 | 3.00
